Laboratory results as given in patent US11939361B2, “Compositions of peptide inhibitors of Interleukin-23 receptor” (Janssen Pharmaceutica NV, priority 2020, dated 2024).
Several values for one entry are separate records, joined by “and”; a condition that tells them apart may be missing. Equal entries are not always repeated. Where two headings read alike, the source gives them in different places.

What was measured:
[1] = tested on: IL-23-induced IL-17A secretion; assay: In vitro rat whole blood assay of IL-23-induced IL-17A secretion; assay type: cell-based
[2] = tested on: rat IL-23 induced skin inflammation model; assay: Rat IL-23 induced ear thickening; assay type: in vivo, Sprague-Dawley rats; design: key to IL-23 induced ear thickening, comparison to control (significance): ns: not significant; **: p < 0.01; ***: p < 0.001; ****: p < 0.0001; conditions: for IL-23 induced ear thickening, comparison to control (significance): control Vehicle
Experimental: Ear inflammation was induced in Sprague-Dawley rats by daily intradermal injection of recombinant rat IL-23 on study days 0-3. Treatment with the peptide of SEQ ID NO: 1 (dose response by oral gavage; 1, 3, 10, 30, 100, and 300 mg/kg, twice a day) was initiated prophylactically starting one day prior to and continued through day 3 after induction of inflammation. All rats were humanely euthanized on day 4. An anti-IL-23 monoclonal antibody (administered intraperitoneally on days −1 and day 3) was included in all studies as a positive control and comparator.
Recombinant rat IL-23 was diluted with PBS to a concentration of 75 μg/mL, divided into 2.0 mL aliquots, and stored at −80° C. Daily from day 0 through day 3, rats were anesthetized with isoflurane and IL-23 was intradermally injected (i.d.) into the right ear (1.5 μg in a volume of 20 μL). In the control group, 20 μL of PBS was injected.
Starting the morning prior to IL-23 injection through the evening of day 3, rats were dosed with either vehicle (phosphate buffer) or the peptide of SEQ ID NO: 1 compound twice daily (approximately 10 hours apart between doses during the day) by oral gavage (p.o.) in a volume of 5 mL/kg. In one experiment, the peptide of SEQ ID NO: 1 was also administered subcutaneously (s.c.) in a volume of 5 mL/kg.
Anti-IL-23p19 antibody or isotype antibody was administered via intraperitoneal injection (i.p.) in a volume of 5 mL/kg on days −1 and 3.
The purpose of the rat ear thickening experiment is to determine whether the orally dosed peptide of SEQ ID NO: 1 has sufficient systemic exposure to provide inhibition of IL-23R in skin tissue, thus modeling orally dosed therapeutic efficacy in psoriatic skin tissue. The animals from Example 19 were also used for Example 20. On day 0, prior to IL-23 injection, the ipsilateral ears averaged approximately 0.4 mm. In rats injected with saline, the ears did swell as a result of the repeated intradermal injections, by an average of 0.053 mm by day 4. By comparison, injection of IL-23 caused the ears of both vehicle-treated and isotype antibody-treated rats to progressively increase in thickness, reaching an average of approximately 0.240 to 0.242 mm by day 4, respectively. […] Reductions in ear thickness at doses of 2 mg/kg, s.c. and 20 mg/kg, p.o., q.d. were not statistically significant (FIG. 9 and Table 15).

[3] = in vivo

Compound: CC(=O)NCCCC[C@@H]1NC(=O)[C@H](Cc2c[nH]c3c(C)cccc23)NC(=O)[C@H]([C@@H](C)O)NC(=O)[C@H](CC(N)=O)NC(=O)[C@@H](NC(C)=O)C(C)(C)SSC(C)(C)[C@@H](C(=O)N[C@@H](Cc2ccc(OCCN)cc2)C(=O)N[C@@H](Cc2ccc3ccccc3c2)C(=O)NC2(C(=O)N[C@@H](CCC(=O)O)C(=O)N[C@@H](CC(N)=O)C(=O)N[C@@H](Cc3cccnc3)C(=O)N(C)CC(N)=O)CCOCC2)NC1=O [SEQ ID NO: 1, Ac-[Pen]*—N-T-[W(7-Me)]-[Lys(Ac)]-[Pen]*-Phe[4-(2-aminoethoxy)]-[2-Nal]-[THP]-E-N-[3-Pal]-Sarc-NH2]
- IC50 ([1]; read-out: IC50 at 4 ng/mL IL-23 stimulation, individual vehicle-dosed rats, plus 4 ng/mL IL-1β, listed as peptide of SEQ ID NO: 1): 0.012 nM and 0.027 nM and 0.045 nM and 0.013 nM and 0.06 nM and 0.066 nM
- IC50 ([1]; read-out: IC50 at 4 ng/mL IL-23 stimulation, pooled blood (n = 6 naïve rats), plus 4 ng/mL IL-1β, listed as peptide of SEQ ID NO: 1): 0.1 nM and 0.11 nM
- IC50 ([1]; read-out: IC50 at 20 ng/mL IL-23 stimulation, individual vehicle-dosed rats, listed as peptide of SEQ ID NO: 1): 0.24 nM and 0.16 nM and 0.22 nM and 0.23 nM and 0.34 nM and 0.29 nM
- IC50 ([1]; read-out: Mean IC50 at 4 ng/mL IL-23 stimulation, in vitro rat whole blood, mean of all experiments): 0.054 ± 0.034 nM
- IC50 ([1]; read-out: Mean IC50 at 20 ng/mL IL-23 stimulation, in vitro rat whole blood, n=6 rats): 0.25 ± 0.062 nM
- IL-23 induced ear thickening, comparison to control (significance) ([2]; 1 mg/kg, p.o., b.i.d., Day 1): ns
- IL-23 induced ear thickening, comparison to control (significance) ([2]; 1 mg/kg, p.o., b.i.d., Day 2): ns
- IL-23 induced ear thickening, comparison to control (significance) ([2]; 1 mg/kg, p.o., b.i.d., Day 3): **** (p < 0.0001)
- IL-23 induced ear thickening, comparison to control (significance) ([2]; 1 mg/kg, p.o., b.i.d., Day 4): **** (p < 0.0001)
- IL-23 induced ear thickening, comparison to control (significance) ([2]; 2 mg/kg, s.c., b.i.d., Day 1): ns
- IL-23 induced ear thickening, comparison to control (significance) ([2]; 2 mg/kg, s.c., b.i.d., Day 2): ns
- IL-23 induced ear thickening, comparison to control (significance) ([2]; 2 mg/kg, s.c., b.i.d., Day 3): ns
- IL-23 induced ear thickening, comparison to control (significance) ([2]; 2 mg/kg, s.c., b.i.d., Day 4): ns
- IL-23 induced ear thickening, comparison to control (significance) ([2]; 3 mg/kg, p.o., b.i.d., Day 1): ns
- IL-23 induced ear thickening, comparison to control (significance) ([2]; 3 mg/kg, p.o., b.i.d., Day 2): ns
- IL-23 induced ear thickening, comparison to control (significance) ([2]; 3 mg/kg, p.o., b.i.d., Day 3): *** (p < 0.001)
- IL-23 induced ear thickening, comparison to control (significance) ([2]; 3 mg/kg, p.o., b.i.d., Day 4): *** (p < 0.001)
- IL-23 induced ear thickening, comparison to control (significance) ([2]; 10 mg/kg, p.o., b.i.d., Day 1): ns
- IL-23 induced ear thickening, comparison to control (significance) ([2]; 10 mg/kg, p.o., b.i.d., Day 2): ns
- IL-23 induced ear thickening, comparison to control (significance) ([2]; 10 mg/kg, p.o., b.i.d., Day 3): *** (p < 0.001)
- IL-23 induced ear thickening, comparison to control (significance) ([2]; 10 mg/kg, p.o., b.i.d., Day 4): **** (p < 0.0001)
- IL-23 induced ear thickening, comparison to control (significance) ([2]; 20 mg/kg, p.o., q.d., Day 1): ns
- IL-23 induced ear thickening, comparison to control (significance) ([2]; 20 mg/kg, p.o., q.d., Day 2): ns
- IL-23 induced ear thickening, comparison to control (significance) ([2]; 20 mg/kg, p.o., q.d., Day 3): ns
- IL-23 induced ear thickening, comparison to control (significance) ([2]; 20 mg/kg, p.o., q.d., Day 4): ns
- IL-23 induced ear thickening, comparison to control (significance) ([2]; 30 mg/kg, p.o., b.i.d., Day 1): ns
- IL-23 induced ear thickening, comparison to control (significance) ([2]; 30 mg/kg, p.o., b.i.d., Day 3): **** (p < 0.0001)
- IL-23 induced ear thickening, comparison to control (significance) ([2]; 30 mg/kg, p.o., b.i.d., Day 4): **** (p < 0.0001)
- IL-23 induced ear thickening, comparison to control (significance) ([2]; 100 mg/kg, p.o., b.i.d., Day 1): ns
- IL-23 induced ear thickening, comparison to control (significance) ([2]; 100 mg/kg, p.o., b.i.d., Day 2): ns
- IL-23 induced ear thickening, comparison to control (significance) ([2]; 100 mg/kg, p.o., b.i.d., Day 3): **** (p < 0.0001)
- IL-23 induced ear thickening, comparison to control (significance) ([2]; 100 mg/kg, p.o., b.i.d., Day 4): **** (p < 0.0001)
- day 4 ear swelling, average ([2]; 300 mg/kg, b.i.d., oral): 0.120 mm
- IL-23 induced ear thickening, comparison to control (significance) ([2]; 300 mg/kg, p.o., b.i.d., Day 1): ns
- IL-23 induced ear thickening, comparison to control (significance) ([2]; 300 mg/kg, p.o., b.i.d., Day 2): ns
- IL-23 induced ear thickening, comparison to control (significance) ([2]; 300 mg/kg, p.o., b.i.d., Day 3): *** (p < 0.001)
- IL-23 induced ear thickening, comparison to control (significance) ([2]; 300 mg/kg, p.o., b.i.d., Day 4): **** (p < 0.0001)
- efficacy on ear thickening ([2]; doses of 10 mg/kg (p.o., b.i.d.) and above): equaled or exceeded that of anti-IL-23 antibody treatment
- IL-23 induced ear thickening ([2]; orally administered): prevented
- mean accumulation for AUC ([3]; human): 13-50%
- Systemic exposure (Cmax and AUC) versus dose [3]: approximately dose-proportional
